Test results as given in patent US9233107B2, “Compositions and methods for the treatment of progressive multifocal leukoencephalopathy (PML)” (Biogen MA Inc., priority 2007, dated 2016).
Read-outs that look alike come from different tables or passages of the source.

Legend:
JCV strain Mad1/SVEΔ = assay: microbe, parasite or virus in culture; format: cell-based, JC polyomavirus (JCV); details: for inhibition at 10 µM: JC polyomavirus; for % Inhibition (total #JCV+) @10 uM: SV40 transformed glial cells, Mad-1/SVEΔ JCV; for % Inhibition (% JCV+) @10 uM: infection rate, JCV+ cells normalised to total cells
Procedure: (§1) SV40 transformed glial cells were seeded in 10% FBS media. The cells were seeded at 2000 cells per well in 75 μl of media per well. On day 2, the media was removed and replaced by 35 μl of a 1× concentrated drug aliquot combined with a 100× diluted JCV Turbo aliquot in 35 μl of 2% FBS media (JCV Turbo is a hybrid Mad-1/SVEΔ virus constructed by insertion of the regulatory region of SV40 into the regulatory region of the Mad-1 strain of JCV (Mad-1/SVE), Vacante et al., Virology 1989, 170: 353-361). The cells were incubated for an hour, after which another 65 uL aliquot of 1× concentrated drug in 2% FBS was added. On day 5 the cells were stained with DAPI (for total cell number) and with a mouse monoclonal antibody against SV40 VP1, which cross reacts with the JCV VP1 protein. […] The information is tabulated as % inhibition (as measured by the number and percentage of JCV positive cells).
(§2) JCV Infectivity Assay: SVG-A cells were seeded at 2,000 cells/well/0.075 ml of culture media in 96 flat-bottom well plate (Corning, N.Y.). The next day compounds were prepared in assay medium (2% heat-inactivated fetal bovine serum, 4 mM L-glutamine, 1×MEM). A master viral plate was prepared by mixing equal volumes of [2×] compound and [2×] diluted virus for the final 1× concentration of the compound and the virus. The plate containing cells was gently inverted and shaken to remove media. From the master plate, 0.035 ml compound/virus was added to designated wells. The cells were incubated with the compound/virus mixture for 60 minutes in a humidified 37° C. CO2 incubator. At that time final concentration of the drug in media was added to designated wells to bring the final volume up to 0.1 ml/well. The plates were incubated for an additional three days, the cells were then washed once with 1×PBS, and fixed in 2% paraformaldehyde/1×PBS for 30 minutes at room temperature. The fixative was removed and the cells were solubilized with 0.5% Triton X100 in PBS for an additional 30 minutes. Infection by Mad-1/SVEΔ virus was visualized by staining with PAB597, a monoclonal antibody against the major capsid protein VP1, the cells were incubated with 0.05 ml of PAB597 (2 μg/ml in 1×PBS) for 60 minutes at 37° C. Following a wash step with 1×PBS, primary antibody was detected with an Alexa-Fluor 488-labeled goat anti-mouse secondary antibody at 1:100 dilution in 1×PBS, cells were counterstained with DAPI at 1 μg/ml (0.05 ml/well) for 30 minutes at 37° C. Cells were washed with 1×PBS and 0.1 ml 1×PBS was added to cells. Field images of each well were acquired and analyzed using the Cellomics ArrayScan (Thermo Scientific Inc, Waltham, Mass.) using the Target Activation software. […] The cells are seeded at 4,000 cells/well/0.075 ml of culture media in 96 flat-bottom well plate (Corning). The culture media is used for the infection. The length of the infection is six to ten days (instead of the three days for SVG-A cells).
Calculations: The rate of JCV infection was calculated by normalizing the number of JCV infected cells by the total number of nucleated cells as % JCV^+ cells=((total # VP1^+ cells)/(total # DAPI^+ cells))*100%. The % of viral inhibition by a compound was calculated using a JCV infection rate instead of using total number of JCV infected cells (e.g., VP1^+ cells).

SVG-A cells = assay: Total cell number (DAPI+ events) / cytotoxicity in the JCV infectivity assay; details: for inhibition at 10 µM: Homo sapiens, SVG-A, read-out: % Inhibition total Cell Number @10 uM; for % Inhibition total Cell Number @10 uM: cytotoxicity, DAPI count
Procedure: as §1, §2
The primary assay employed an SVG-A cell line and JCV Mad1/SVEΔ viral strain.

[1] = Glial cell, read-out: % Inhibition (total #JCV+) @10 uM
[2] = SVG-A, read-out: % Inhibition (% JCV+) @10 uM

OCCN(CCO)c1nc(N2CCCCC2)c2nc(N(CCO)CCO)nc(N3CCCCC3)c2n1 [DIPYRIDAMOLE]
inhibition at 10 µM (JCV strain Mad1/SVEΔ; [1]): 24% | inhibition at 10 µM (JCV strain Mad1/SVEΔ; [2]): 22% | inhibition at 10 µM (SVG-A cells): 3%

O=S1OCC2C(CO1)C1(Cl)C(Cl)=C(Cl)C2(Cl)C1(Cl)Cl (centres unmarked) [ENDOSULFAN]
inhibition at 10 µM (JCV strain Mad1/SVEΔ; [1]): 54% | inhibition at 10 µM (JCV strain Mad1/SVEΔ; [2]): 44% | inhibition at 10 µM (SVG-A cells): 19%

O=C(O)c1ccccc1Nc1cccc(C(F)(F)F)c1 [FLUFENAMIC ACID]
inhibition at 10 µM (JCV strain Mad1/SVEΔ; [1]): 37% | inhibition at 10 µM (JCV strain Mad1/SVEΔ; [2]): 26% | inhibition at 10 µM (SVG-A cells): 14%

C=C[C@@H]1C2=CCOC(=O)C2=CO[C@H]1O[C@@H]1O[C@H](CO)[C@@H](O)[C@H](O)[C@H]1O [GENTIOPICROSIDE]
inhibition at 10 µM (JCV strain Mad1/SVEΔ; [1]): 32% | inhibition at 10 µM (JCV strain Mad1/SVEΔ; [2]): 22% | inhibition at 10 µM (SVG-A cells): 11%

COc1cc2c(cc1-c1coc3c4c(c(OC)cc3c1=O)OC(C)(C)C=C4)OCO2 [ICHTHYNONE]
inhibition at 10 µM (JCV strain Mad1/SVEΔ; [1]): 34% | inhibition at 10 µM (JCV strain Mad1/SVEΔ; [2]): 24% | inhibition at 10 µM (SVG-A cells): 14%

C[C@H](N)CO [L-ALANINOL]
% Inhibition (total #JCV+) @10 uM (JCV strain Mad1/SVEΔ): 13% | % Inhibition (% JCV+) @10 uM (JCV strain Mad1/SVEΔ): 31% | % Inhibition total Cell Number @10 uM (SVG-A cells): −23%

COC(=O)c1c(C)c2c(c(C)c1O)OC(=O)c1c(C)c(Cl)c(O)c(Cl)c1O2 [LEOIDIN]
inhibition at 10 µM (JCV strain Mad1/SVEΔ; [1]): 14% | inhibition at 10 µM (JCV strain Mad1/SVEΔ; [2]): 21% | inhibition at 10 µM (SVG-A cells): -9%

COc1cc(OC)c(C(C)=O)c(OC)c1 [METHYLXANTHOXYLIN]
% Inhibition (total #JCV+) @10 uM (JCV strain Mad1/SVEΔ): 33% | % Inhibition (% JCV+) @10 uM (JCV strain Mad1/SVEΔ): 30% | % Inhibition total Cell Number @10 uM (SVG-A cells): 5%

COc1ccc2cc(CCC(C)=O)ccc2c1 [NABUMETONE]
inhibition at 10 µM (JCV strain Mad1/SVEΔ; [1]): 20% | inhibition at 10 µM (JCV strain Mad1/SVEΔ; [2]): 23% | inhibition at 10 µM (SVG-A cells): -2%

COc1cc2c(cc1-c1cc3cc4ccoc4cc3oc1=O)OCO2 [PACHYRRHIZIN]
% Inhibition (total #JCV+) @10 uM (JCV strain Mad1/SVEΔ): 45% | % Inhibition (% JCV+) @10 uM (JCV strain Mad1/SVEΔ): 34% | % Inhibition total Cell Number @10 uM (SVG-A cells): 17%

CC(C)=CCc1c(O)cc2oc(C)cc(=O)c2c1O [PEUCENIN]
inhibition at 10 µM (JCV strain Mad1/SVEΔ; [1]): 21% | inhibition at 10 µM (JCV strain Mad1/SVEΔ; [2]): 27% | inhibition at 10 µM (SVG-A cells): -7%

COc1cc([C@@H]2c3cc4c(cc3[C@H](O)[C@H]3COC(=O)[C@@H]23)OCO4)cc(OC)c1OC [PICROPODOPHYLLOTOXIN]
inhibition at 10 µM (JCV strain Mad1/SVEΔ; [1]): 19% | inhibition at 10 µM (JCV strain Mad1/SVEΔ; [2]): 22% | inhibition at 10 µM (SVG-A cells): -1%

COc1cc(/C=C/C(=O)N2CCC=CC2=O)cc(OC)c1OC [PIPLARTINE]
inhibition at 10 µM (JCV strain Mad1/SVEΔ; [1]): 21% | inhibition at 10 µM (JCV strain Mad1/SVEΔ; [2]): 27% | inhibition at 10 µM (SVG-A cells): -7%

O=c1cc(-c2ccccc2)oc2cccc(O)c12 [PRIMULETIN]
% Inhibition (total #JCV+) @10 uM (JCV strain Mad1/SVEΔ): 40% | % Inhibition (% JCV+) @10 uM (JCV strain Mad1/SVEΔ): 29% | % Inhibition total Cell Number @10 uM (SVG-A cells): 12%

CC1=CCc2c(cc3oc(C)cc(=O)c3c2O)OC1 [PTAEROXYLIN]
inhibition at 10 µM (JCV strain Mad1/SVEΔ; [1]): 32% | inhibition at 10 µM (JCV strain Mad1/SVEΔ; [2]): 22% | inhibition at 10 µM (SVG-A cells): 11%

CN1CCCN=C1/C=C/c1cccs1 [PYRANTEL PAMOATE]
inhibition at 10 µM (JCV strain Mad1/SVEΔ; [1]): 48% | inhibition at 10 µM (JCV strain Mad1/SVEΔ; [2]): 42% | inhibition at 10 µM (SVG-A cells): 12%

Nc1nc2ccc(OC(F)(F)F)cc2s1 [RILUZOLE]
inhibition at 10 µM (JCV strain Mad1/SVEΔ; [1]): 16% | inhibition at 10 µM (JCV strain Mad1/SVEΔ; [2]): 26%

CN(CCOc1ccc(CC2SC(=O)NC2=O)cc1)c1ccccn1 (centres unmarked) [ROSIGLITAZONE]
inhibition at 10 µM (JCV strain Mad1/SVEΔ; [1]): 22% | inhibition at 10 µM (JCV strain Mad1/SVEΔ; [2]): 23% | inhibition at 10 µM (SVG-A cells): -1%

c1ccc2[nH]c(-c3cscn3)nc2c1 [THIABENDAZOLE]
inhibition at 10 µM (JCV strain Mad1/SVEΔ; [1]): 19% | inhibition at 10 µM (JCV strain Mad1/SVEΔ; [2]): 22% | inhibition at 10 µM (SVG-A cells): -1%
